Assay results taken from patent publication US8399459B2, “1,4 oxazines as BACE1 and/or BACE2 inhibitors” (Hoffmann-La Roche Inc., priority 2011, dated 2013).

Experiments:
[1] = target: T1, BACE1 (Homo sapiens, UniProt P56817); test: Cellular Aβ-lowering assay (Aβ40 ELISA, HEK293 cells expressing human APP695); format: cell-based; conditions: HEK293 cells stably expressing human APP695; Aβ40 in supernatant after 18-20 hrs
T1 construct: Human HEK293 cells which are stably transfected with a vector expressing a cDNA of the human APP wt gene (APP695); endogenous in cells; host or cells: HEK293 (human), stably transfected with human APP695 wt only
Experimental: Cellular Aβ-Lowering Assay:
Human HEK293 cells which are stably transfected with a vector expressing a cDNA of the human APP wt gene (APP695) were used to assess the potency of the compounds in a cellular assay. The cells were seeded in 96-well microtiter plates in cell culture medium (Iscove, plus 10% (v/v) fetal bovine serum, glutamine, penicillin/streptomycin) to about 80% confluence and the compounds were added at a 10× concentration in 1/10 volume of medium without FCS containing 8% DMSO (final concentration of DMSO was kept at 0.8% v/v). After 18-20 hrs incubation at 37° C. and 5% CO2 in a humidified incubator the culture supernatant was harvested for the determination of Aβ40 concentrations. 96well ELISA plates (e.g., Nunc MaxiSorb) were coated with monoclonal antibody which specifically recognize the C-terminal end of Aβ40 (Brockhaus et al., NeuroReport 9, 1481-1486; 1998). After blocking of non-specific binding sites with e.g. 1% BSA and washing, the culture supernatants were added in suitable dilutions together with a horseradish peroxidase-coupled Aβ detection antibody (e.g., antibody 4G8, Senetek, Maryland Heights, Mo.) and incubated for 5 to 7 hrs. Subsequently the wells of the microtiter plate were washed extensively with Tris-buffered saline containing 0.05% Tween 20 and the assay was developed with tetramethylbenzidine/H2O2 in citric acid buffer. After stopping the reaction with one volume 1 N H2SO4 the reaction was measured in an ELISA reader at 450 nm wavelength. The concentrations of Aβ in the culture supernatants were calculated from a standard curve obtained with known amounts of pure Aβ peptide.

[2] = target: T2, cathepsin D (from human liver) (Homo sapiens, UniProt P07339); test: Cathepsin D fluorescent substrate kinetic assay; format: biochemical; conditions: pH 5.5, substrate […]-MR121
T2 construct: cathepsin D (from human liver, Calbiochem); purchased Calbiochem; host or cells: purified from human liver
Source text: Cathepsin D and Cathepsin E Fluorescent Substrate Kinetic Assays
The MR121 fluorescence assays described below are based on the fact that MR121 forms a non-fluorescent ground state complex with tryptophan. In solution this formation occurs at millimolar concentrations of tryptophan. The mechanism can be used to design a generic biochemical assay for proteases. A substrate peptide is labeled at the N-terminus with tryptophan and at the C-terminus with the fluorophore MR121 (for cathepsin D the 10 amino acid peptide […]-MR121 was used; for cathepsin E, MR121-[…] was used). In absence of protease activity, the substrates remain intact and the MR121 fluorescence is reduced by the high local Trp-concentration. If the substrates are cleaved by the enzymes the MR121 fluorescence is recovered.
The fluorescent substrate cathepsin D and cathepsin E kinetic assays were performed at room temperature in 384-well microtiter plates (black with clear flat bottom, non binding surface plates from Corning) in a final volume of 51 μl. […] The enzymatic reaction was followed in a plate: vision reader (Perkin Elmer) (excitation wavelength: 630 nm; emission: 695 nm) for at least 30 minutes in a kinetic measurement detecting an increase of MR121 fluorescence during the reaction time. […]

[3] = target: T3, CYP3A4 (Homo sapiens, UniProt P08684); test: CYP inhibition assay, human liver microsomes, midazolam 1′hydroxylase; format: in vitro ADME; conditions: pooled human liver microsomes, read-out: CYP IC50 3A4
T3 construct: 0.2 mg/ml pooled human liver microsomes; from tissue; host or cells: pooled human liver microsomes
Experimental: (§1) Inhibition of cytochromes P450 (CYPs) 2C9, 2D6 and 3A4 was assessed using human liver microsomes and CYP-selective substrate metabolism reactions. 50 μl incubations were made up containing (finally) 0.2 mg/ml pooled human liver microsomes, 5 μM substrate (diclofenac for CYP2C9 [4′hydroxylase], dextromethorphan for CYP2D6 [O-demethylase] or midazolam for CYP3A4 [1′hydroxylase]), 0.25 μL DMSO containing test inhibitor and NADPH regenerating system. Test inhibitor concentrations of 50, 16.7, 5.6, 1.9, 0.6 and 0.2 μM were assessed in singlicate. Incubations were prewarmed to 37° C. for 10 minutes before initiation by addition of NADPH regenerating system. Incubations were quenched after 5 minutes (20 minutes for dextromethorphan) by addition of 50 μl cold acetonitrile containing 20 ng/ml 4-OH-diclofenac-13C6, 20 ng/mL dextrorphan-D3 and 20 ng/mL 1-OH-midazolam-D4. Quenched incubates were stored at −20° C. for at least 1 hour before centrifugation (20,000×g, 20 minutes). Supernatants were removed and diluted 1:1 with water prior to analysis using a RapidFire sample injector system and API4000 mass spectrometer. Peak areas for substrate, metabolite and stable-labelled metabolite standard were determined using MS/MS. The peak area ratios between the metabolite generated by the enzymatic reaction and the internal standard were used in subsequent calculations. The percentage of (DMSO) control activity was calculated for each incubate and IC50 values estimated by non-linear regression. Sulfaphenazole, quinidine or ketoconazole were tested in each CYP2C9, CYP2D6 or CYP3A4 inhibition experiment, respectively, to ensure assay sensitivity and reproducibility. (Validated assays for human cytochrome P450 activities, R. L. Walsky and R. S. Obach, Drug Metabolism and Disposition 32: 647-660, 2004. and S. Fowler and H. Zhang, The AAPS Journal, Vol. 10, No. 2, 410-424, 2008.)

[4] = target: T4, CYP2D6 (Homo sapiens, UniProt P10635); test: CYP inhibition assay, human liver microsomes, dextromethorphan O-demethylase; format: in vitro ADME; conditions: pooled human liver microsomes, read-out: CYP IC50 2D6
T4 construct: 0.2 mg/ml pooled human liver microsomes; from tissue; host or cells: pooled human liver microsomes
Experimental: as §1

[5] = target: T5, CYP2C9 (Homo sapiens, UniProt P11712); test: CYP inhibition assay, human liver microsomes, diclofenac 4′hydroxylase; format: in vitro ADME; conditions: pooled human liver microsomes, read-out: CYP IC50 2C9
T5 construct: 0.2 mg/ml pooled human liver microsomes; from tissue; host or cells: pooled human liver microsomes
Experimental: as §1

T1 sequence (P56817 46-501): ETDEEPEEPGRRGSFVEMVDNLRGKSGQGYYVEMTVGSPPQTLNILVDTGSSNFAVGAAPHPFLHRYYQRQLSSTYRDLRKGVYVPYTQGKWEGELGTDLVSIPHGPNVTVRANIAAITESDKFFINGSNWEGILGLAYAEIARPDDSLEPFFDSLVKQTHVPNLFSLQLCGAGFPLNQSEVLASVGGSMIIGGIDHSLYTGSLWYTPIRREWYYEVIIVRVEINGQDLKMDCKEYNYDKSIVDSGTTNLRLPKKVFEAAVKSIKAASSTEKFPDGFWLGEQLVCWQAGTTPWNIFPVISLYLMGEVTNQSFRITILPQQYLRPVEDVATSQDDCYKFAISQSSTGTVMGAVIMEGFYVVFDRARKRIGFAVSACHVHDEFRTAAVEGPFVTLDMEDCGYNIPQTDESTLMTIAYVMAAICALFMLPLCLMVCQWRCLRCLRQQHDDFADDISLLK
T4 sequence (P10635 whole entry): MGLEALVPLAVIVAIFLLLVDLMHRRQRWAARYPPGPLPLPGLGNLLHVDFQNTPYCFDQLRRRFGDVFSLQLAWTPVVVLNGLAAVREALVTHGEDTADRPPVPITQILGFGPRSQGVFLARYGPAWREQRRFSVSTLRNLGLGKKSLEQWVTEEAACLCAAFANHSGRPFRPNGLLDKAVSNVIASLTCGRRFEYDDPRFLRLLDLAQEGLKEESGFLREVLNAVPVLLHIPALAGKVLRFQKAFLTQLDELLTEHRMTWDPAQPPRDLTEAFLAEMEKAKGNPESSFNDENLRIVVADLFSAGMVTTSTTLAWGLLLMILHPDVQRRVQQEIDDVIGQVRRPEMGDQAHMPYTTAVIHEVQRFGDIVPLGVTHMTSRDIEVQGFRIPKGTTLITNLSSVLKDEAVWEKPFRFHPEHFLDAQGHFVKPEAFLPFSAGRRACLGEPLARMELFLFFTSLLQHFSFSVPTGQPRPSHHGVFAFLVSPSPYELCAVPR
T2 sequence (P07339 65-162 limits assumed): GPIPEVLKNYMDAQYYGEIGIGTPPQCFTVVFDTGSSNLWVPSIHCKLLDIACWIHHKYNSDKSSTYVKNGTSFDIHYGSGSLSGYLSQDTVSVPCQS
T2 sequence (P07339 169-412 limits assumed): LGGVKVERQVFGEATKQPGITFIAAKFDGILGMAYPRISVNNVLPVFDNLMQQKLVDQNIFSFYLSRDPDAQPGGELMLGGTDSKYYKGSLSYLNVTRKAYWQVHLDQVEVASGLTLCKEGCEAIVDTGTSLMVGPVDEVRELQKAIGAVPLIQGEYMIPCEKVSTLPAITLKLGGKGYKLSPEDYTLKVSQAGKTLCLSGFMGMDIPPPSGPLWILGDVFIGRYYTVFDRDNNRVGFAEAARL
T5 sequence (P11712 whole entry): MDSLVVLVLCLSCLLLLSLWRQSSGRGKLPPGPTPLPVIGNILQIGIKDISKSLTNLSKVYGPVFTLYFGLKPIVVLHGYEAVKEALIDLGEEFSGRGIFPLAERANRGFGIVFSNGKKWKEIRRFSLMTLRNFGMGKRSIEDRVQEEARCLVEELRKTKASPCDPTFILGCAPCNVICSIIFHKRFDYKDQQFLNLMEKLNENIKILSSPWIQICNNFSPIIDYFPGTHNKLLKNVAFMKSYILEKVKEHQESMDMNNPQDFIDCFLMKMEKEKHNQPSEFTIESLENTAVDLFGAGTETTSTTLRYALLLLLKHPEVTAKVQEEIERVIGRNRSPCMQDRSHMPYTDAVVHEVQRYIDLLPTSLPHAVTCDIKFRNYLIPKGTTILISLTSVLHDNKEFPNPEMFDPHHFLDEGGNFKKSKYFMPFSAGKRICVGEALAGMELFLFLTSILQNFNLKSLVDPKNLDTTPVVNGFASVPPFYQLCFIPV
T3 sequence (P08684 whole entry): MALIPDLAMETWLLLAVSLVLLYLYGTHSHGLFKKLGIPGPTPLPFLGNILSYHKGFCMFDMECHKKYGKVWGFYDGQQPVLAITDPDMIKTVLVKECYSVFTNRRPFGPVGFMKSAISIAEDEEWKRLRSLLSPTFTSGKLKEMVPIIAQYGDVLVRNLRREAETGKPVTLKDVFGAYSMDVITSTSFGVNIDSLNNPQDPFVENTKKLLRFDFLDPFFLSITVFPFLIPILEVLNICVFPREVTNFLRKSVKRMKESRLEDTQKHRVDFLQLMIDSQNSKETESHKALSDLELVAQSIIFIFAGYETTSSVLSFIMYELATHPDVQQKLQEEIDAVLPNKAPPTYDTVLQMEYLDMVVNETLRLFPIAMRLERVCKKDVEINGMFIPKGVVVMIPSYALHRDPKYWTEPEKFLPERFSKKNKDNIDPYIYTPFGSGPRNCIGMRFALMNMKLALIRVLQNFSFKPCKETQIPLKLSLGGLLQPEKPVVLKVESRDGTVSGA

IC50 [1] | IC50 [2] | IC50 [3] | IC50 [4] | IC50 [5] | Compound
1.53 µM | 2.8 µM | > 50 µM | > 50 µM | 3.7 µM | CC1(c2cccc(-c3cc(Cl)cc(Cl)c3)c2)COCC(N)=N1 (stereo not shown) [Example 32, 5-(3′,5′-Dichloro-biphenyl-3-yl)-5-methyl-5,6-dihydro-2H-[1,4]oxazin-3-ylamine]
0.98 µM | 34 µM | > 50 µM | 41 µM | > 50 µM | CC1(c2cc(-c3cncnc3)ccc2F)COCC(N)=N1 (stereo not shown) [Example 36, 5-(2-Fluoro-5-pyrimidin-5-yl-phenyl)-5-methyl-5,6-dihydro-2H-[1,4]oxazin-3-ylamine]
